Measurements taken from publication PMC11984924, “Dipeptidic Phosphonates: Potent Inhibitors of Pseudomonas aeruginosa Elastase B Showing Efficacy in a Murine Keratitis Model” (Advanced Science, 2025).

Key:
[1] = test system: P. aeruginosa strain PA54 keratitis; assay: Murine Pseudomonas keratitis model; format: in vivo, mouse
Protocol: Based on our previous findings on target engagement in a murine pneumonia model in combination with a standard‐of‐care antibiotic,^[ [30] ^] we applied the dipeptide (R)‐30 alone and in combination with the commonly used antibiotic meropenem.^[ [9] ^] The keratitis model was carried out using aged female C57BL/6 mice, as previously published.^[ [37] ^] For infection, 5*10^7 colony forming units (CFUs) of PA54 were topically administered on denuded, mechanically harmed corneas. Treatments with meropenem, (R)‐30, or meropenem in combination with (R)‐30 were performed every 8 h for 72 h (first treatment at 6 h post infection). Each of the in total nine 5 µL‐doses contained 1 mg/mL (R)‐30 and/or 0.5 mg mL^−1 meropenem. Sham‐treated mice received 5 µL‐doses of the vehicle (0.9% saline and 1% DMSO) at the time points indicated above, and uninfected eyes received no treatment. […]
Animals: The animal experiments were approved by Saarland University’s Animal Welfare Committee (Application number: 17/2021) and conducted in accordance with German and European recommendations and guidelines for the ethical use of animals. The laboratory animals were all C57BL/6N female eight to eleven months old mice. Keeping in specific pathogen-free conditions was provided. Unlimited access to water and show was secured.
Temperature was closely maintained around 22 °C and relative air humidity around 50%. Light and darkness alternated at twelve-hour intervals. All laboratory animals were purchased from Charles River GmbH, Sulzfeld, Germany.
P. aeruginosa: The P. aeruginosa strain PA54 was employed to induce an experimental bacterial keratitis in the aforementioned C57BL/6N mice. The strain PA54 was isolated from human infections and collected at Saarland University Medical Center’s Institute for Medical Microbiology and Hygienics (IMMH) in 2009. According to Magiorakos et al., PA54 can be classified as multidrug-resistant due to its lacking sensibility to the anti-pseudomonal cephalosporins ceftazidime and cefepime, the anti-pseudomonal fluoroquinolones ciprofloxacin and levofloxacin, the […] fosfomycin, and the aminoglycoside gentamicin.[18] The minimum inhibitory concentration (MIC) of the reserve antibiotic meropenem (meropenem trihydrate, Sigma) was 1 µg/mL (sensitivity limit = 2 µg/mL). The exoU- and exoT-positivity of the PA54 strain, foregrounds its keratitogenic potential.
Inoculum: The P. aeruginosa strain PA54 is routinely grown overnight on blood agar (TrypticaseTM Soy Agar, 5% sheep blood, BD, Heidelberg, Germany) at 37 °C. To obtain a stationary phase cell inoculum, a freshly grown colony was inoculated in tryptic soy broth (TSB; BD, Heidelberg, Germany) and cultured at 37 °C and 150 rounds per minute (rpm) for 16 h.
Then, 2 mL were centrifuged at 13,200 rpm at rt for 2 min, whereupon cells were resuspended in spent medium to an OD600 of 10 (∼1×1010 CFU/mL). Short storage on ice followed, before the infection procedure started.
Infection Procedure: Anesthesia and infection were performed as previously published. Briefly, fentanyl (Hameln Pharma Plus GmbH, Hameln, Germany), midazolam hydrochloride (Midazolam-Hameln, 5 mg/mL, Hameln pharma GmbH, Germany) and medetomidine hydrochloride (Domitor, Orion Corporation, Espoo, Finland) were dissolved in 0.9% NaCl (NaCl 0.9%, Ecotainer 500 mL, B. Braun, Melsungen, Germany), dosed at 0.05 mg/kg, 5 mg/kg and 0.5 mg/kg body weight, respectively, and applied by intraperitoneal injection. Analgesia (Carprofen, 5 mg/kg body weight, Zoetis Deutschland GmbH, Berlin, Germany) was ap plied subcutaneously. Lacrimation was stopped with 10 µL of a 0.6% acetylcysteine solution (Pharmacy of Saarland University Hospitals, Homburg, Germany). Local analgesia (0.5% proxymetacaine hydrochloride, Proparakain -POS Augentropfen, Ursapharm Arzneimitt el GmbH, Saarbrücken, Germany) was eye-dropped and removed after 60 seconds. The blunt […]

[2] = (R)-30 levels in serum of keratitis mice; format: in vivo; conditions: C57BL/6, mouse, 5 µL of 1 mg/mL (R)-30 per dose (nine doses, every 8 h), keratitis mice after topical ocular dosing
Protocol: 3.15 Bioanalytical sample preparation of keratitis samples for determination of
concentration of ( R)-30 in eye and serum
All PD serum and eye homogenate samples were analyzed via HPLC -MS/MS using an Agilent
1290 Infinity II HPLC system and coupled to an AB Sciex QTrap6500+ mass spectrometer.
First, a calibration curve was prepared by spiking different concentrations of (R)-30 into the
respective matrix (mouse serum (pooled, from CD -1 mice) for plasma samples, isotonic
sodium chloride solution for eye homogenate samples). Caffeine was used as an internal
standard. In addition, quality control samples (QCs) were prepared for (R)-30 with the
respective matrix. The following extraction procedure was used: 7.5 μL of a serum sample
(calibration samples, QCs or PD samples) was extracted with 37.5 μL of methanol containing
12.5 ng/mL of caffeine as internal standard for 5 min at 2,000 r pm on an Eppendorf MixMate®
vortex mixer. Then samples (serum) were spun down at 13,000 rpm for 5 min. Supernatants
were transferred to standard HPLC-glass vials. 50 μL of an eye homogenate sample […]
standard were analyzed using MultiQuant 3.0 software (AB Sciex). […]
for quantification are marked with a ‘Q’ in the table, the other MS/MS pairs for the respective
compound were used for qualification. Peaks of PD samples were quantified using the
calibration curve. The accuracy of the calibration curve was determined using QC s […]

In the case of CC(=O)c1ccc(NC(=O)[C@@H](NC(=O)[C@@H](CC(C)C)P(=O)(O)O)C(C)C)cc1 [(R)‐30], the “effect on bacterial loads in the eye” value ([1]; day 3 post infection) is reported as “no clear effect on the bacterial loads”, the “IL‐1β levels in eye homogenate” value ([1]; day 3 post infection, compared to sham treatment / uninfected eyes) is reported as “significant reduction” and the “KC levels in eye homogenate” value ([1]; day 3 post infection, compared to uninfected eyes) is reported as “significantly higher amounts of this chemokine”. For the same molecule, the “median clinical keratitis score” value ([1]; day three post infection, topical every 8 h for 72 h, 1 mg/mL (R)-30 and/or 0.5 mg/mL meropenem) was 4 and the concentration at 3 days post infection [2] was under 500 nM.
